As usually defined, the logP is the decadic logarithm of the partition coefficient of the neutral form, usually between octanol and water. `COc1ccc(C#N)cc1OC` gave a logP of 1.42.

On to `CC(C)C(C#N)c1ccc([N+](=O)[O-])cc1` (configuration not stated), for which the lipophilicity (logP) was 2.63.

On to `CCOc1ccc(C#N)cc1`, for which the logP amounted to 2.03.

In turn, `COc1ccc(C(C#N)C(C)C)cc1` (configuration not stated) showed a logP of 2.68.

As to `CC(C)C(C#N)c1ccccc1` (configuration not stated), the log partition coefficient (logP) came to 2.89.

`N#Cc1ccc(Cl)c(Cl)c1` came in with a logP of 2.98.

With `N#Cc1ccc(Br)cc1`, the logP stood at 2.42.

With `COc1ccc(C#N)cc1`, the logP is 1.49.

In the case of `N#Cc1ccc(O)c(Br)c1`, the logP is 1.75.

For the molecule `COc1ccc(C#N)cc1[N+](=O)[O-]`, the logP is 1.23.

Molecule `CCOc1cc(C#N)ccc1O` displayed a logP of 1.36.

`COc1cc(C#N)ccc1O` displayed a logP of 0.82.

The molecule `CCOc1ccc(C#N)cc1[N+](=O)[O-]` had a logP of 1.77.

The molecule `CCOc1ccc(C#N)cc1Br` showed a logP of 2.99.

`CCOc1ccc(C#N)cc1OC` yielded a logP of 2.06.

Take `N#Cc1cccc([N+](=O)[O-])c1`: the log partition coefficient (logP) stood at 1.3.

Regarding `COc1ccc(C#N)cc1Br`, the logP came out at 2.35.

The record behind these values is the SangsterLogP compilation.
